Measured values: publication PMC4303912, “A primary fish gill cell culture model to assess pharmaceutical uptake and efflux: Evidence for passive and facilitated transport” (Aquatic Toxicology (Amsterdam, Netherlands), 2015)
Like-named read-outs stand apart in the source and are kept apart here. Marks after values point to notes of the source that are not given here. Each block holds one compound with its values, some of them ahead of it.

Experiments:
DSI gill cell epithelium [1] = experiment: Concentration equilibrium transport assays (CETA); conditions: for CETA, percentage of initial concentration apical versus basal: 1 μg L^−1 both sides, over 48 h
DSI gill cell epithelium [2] = conditions: for Uptake TR (Papp A:B/Papp B:A): rainbow trout (Oncorhynchus mykiss)
[3] = cited from earlier work
in vitro = conditions: rainbow trout (Oncorhynchus mykiss)
[4] = system: propranolol uptake across DSI gill cell epithelium; experiment: Inhibition of the uptake of propranolol by transporter inhibitors; conditions: 400 nM inhibitor, 48 h
[5] = Membrane (paracellular) permeability with 14C-mannitol; type: in vitro ADME, rainbow trout (Oncorhynchus mykiss); conditions: for Papp A→B at 24 h, 0.43 nM: rainbow trout (Oncorhynchus mykiss)
DSI gill cell epithelium [6] = experiment: Bidirectional transport assays (BTA), apparent permeability coefficients and transport ratios; conditions: for difference between Papp A:B and Papp B:A: 6 h; for time-dependent BTA, uptake versus efflux (% of donor concentration): over 48 h
DSI gill cell epithelium [7] = experiment: Concentration-dependent uptake of propranolol, in vitro basal concentrations; type: in vitro ADME, rainbow trout (Oncorhynchus mykiss); conditions: for In vitro concentration (basal compartment): 6 h apical exposure, asymmetrical
Description: Radioactivity was analyzed as previously described in Section 2.3.
This was calculated using the mammalian fish leverage model, whereby the predicted plasma concentration can be described by multiplying the environmental concentration by the blood to water partitioning coefficient ([Huggett et al., 2004]) using the Fitzsimmons model for the partitioning of compounds between blood and water ([Fitzsimmons et al., 2001]).

[8] = Bidirectional transport assays (BTA), apparent permeability coefficients and transport ratios; conditions: rainbow trout (Oncorhynchus mykiss)
[9] = design: method as in AstraZeneca, 2014; conditions: experimentally measured values, ref AstraZeneca, 2014, cited from earlier work
[10] = design: method as in Owen et al., 2009; conditions: ref Owen et al., 2009, cited from earlier work; for In vivo plasma concentration: 40 days exposure
DSI gill cell epithelium [11] = experiment: pH-dependent transport of propranolol; type: in vitro ADME, rainbow trout (Oncorhynchus mykiss); conditions: pH from 8 to 9.5; asymmetrical; 6 h
[12] = pH-dependent transport of propranolol; type: in vitro ADME, rainbow trout (Oncorhynchus mykiss); conditions: rainbow trout (Oncorhynchus mykiss); for Papp B→A at 6 h, 1 μg L^−1: 1 μg L^−1, read-out: Papp B:A (efflux permeability)
[13] = nominal water concentration 10 μg L^−1
[14] = nominal water concentration 100 μg L^−1
[15] = nominal water concentration 1000 μg L^−1
[16] = nominal water concentration 10,000 μg L^−1

Structure (SMILES): COc1ccc(CC(C)NCC(O)c2ccc(O)c(NC=O)c2)cc1 (centres unmarked) [Formoterol, formoterol]
CETA, percentage of initial concentration apical versus basal (DSI gill cell epithelium [1]; asymmetrical conditions): no signs of facilitated transport
CETA, percentage of initial concentration apical versus basal (DSI gill cell epithelium [1]; symmetrical conditions): more in the apical than basal
difference between Papp A:B and Papp B:A (DSI gill cell epithelium [2]): no significant differences
time-dependent BTA, uptake versus efflux (% of donor concentration) (DSI gill cell epithelium [2]): slightly greater uptake than efflux
Uptake TR (Papp A:B/Papp B:A) (DSI gill cell epithelium [2]): 1.08
Uptake TR (Papp A:B/Papp B:A) (DSI gill cell epithelium [2]; pH 7.7): 0.97
pKa (acidic) ([3]; acidic): 7.9
pKa (basic) ([3]; basic): 9.2
efflux ratio (in vitro): 0.93
efflux ratio (in vitro; pH 7.7): 1.03

facilitated transport as share of the total transport (DSI gill cell epithelium [1]; CETA): approximately 10%
CETA, percentage of initial concentration apical versus basal (DSI gill cell epithelium [1]; asymmetrical conditions): increased apical to basal transport
Structure (SMILES): CN(C)CCCN1c2ccccc2CCc2ccccc21 [Imipramine, imipramine]
CETA, percentage of initial concentration apical versus basal (DSI gill cell epithelium [1]; symmetrical conditions): increased basal to apical facilitated transport
pKa [3]: around 9.5

Structure (SMILES): CN(C)C(=O)CCSC(SCCC(=O)O)c1cccc(/C=C/c2ccc3ccc(Cl)cc3n2)c1 (centres unmarked) [MK571]
decrease in propranolol permeability compared to the control ([4]; apical application): approximately 40%
decrease in propranolol permeability compared to the control ([4]; basal application): approximately 40%

Papp at 24 h, 0.43 nM ([5]; pH 7.7, cell free inserts, TER 0 Ω cm^2 (blanked), apical freshwater, read-out: Mannitol flux (permeability)): 3.6 ± 0.2 ×10⁻⁶ cm/s
Papp A→B at 24 h, 0.43 nM ([5]; pH 7.7, DSI epithelia with TER 200–1000 Ω cm^2, apical freshwater, read-out: mannitol permeability): 1.1 ± 1.1 ×10⁻⁶ cm/s
Papp A→B at 24 h, 0.43 nM ([5]; pH 7.7, DSI epithelia with TER >2 kΩ cm^2, apical freshwater, read-out: mannitol permeability (Papp A:B)): 0.1 ± 0.01 ×10⁻⁶ cm/s
Structure (SMILES): OC[C@@H](O)[C@@H](O)[C@H](O)[C@H](O)CO [Mannitol, mannitol]

CETA, percentage of initial concentration apical versus basal (DSI gill cell epithelium [1]; asymmetrical conditions): no signs of facilitated transport
CETA, percentage of initial concentration apical versus basal (DSI gill cell epithelium [1]; symmetrical conditions): no significant differences
difference between Papp A:B and Papp B:A (DSI gill cell epithelium [6]; asymmetrical conditions): no significant differences
time-dependent BTA, uptake versus efflux (% of donor concentration) (DSI gill cell epithelium [6]; asymmetrical conditions): slightly greater uptake than efflux
Structure (SMILES): COCCc1ccc(OCC(O)CNC(C)C)cc1 (centres unmarked) [Metoprolol, metoprolol]

Structure (SMILES): CC(C)NCC(O)COc1cccc2ccccc12 (centres unmarked) [Propranolol, propranolol]
facilitated transport as share of the total transport (DSI gill cell epithelium [1]; CETA): approximately 10%
CETA, percentage of initial concentration apical versus basal (DSI gill cell epithelium [1]; asymmetrical conditions): increased apical to basal transport
CETA, percentage of initial concentration apical versus basal (DSI gill cell epithelium [1]; symmetrical conditions): significantly more than the basal
in vitro basolateral concentration as average share of actual plasma concentration (DSI gill cell epithelium [7]): 16%
in vitro basolateral concentration as average share of predicted plasma concentration (DSI gill cell epithelium [7]): 6%
slope of [rate] versus [concentration] (flux) (DSI gill cell epithelium [7]; 0.014–10,000 μg L^−1, 6 h, linear regression, n = 54, r^2 = 0.974): 0.052
slope of [in vitro] versus [actual] plasma concentration (DSI gill cell epithelium [7]; n = 21, r^2 = 0.966): 0.155
slope of [in vitro] versus [predicted] plasma concentration (DSI gill cell epithelium [7]; n = 21, r^2 = 0.995): 0.063
In vitro concentration (basal compartment) (DSI gill cell epithelium [7]; nominal water concentration 0.1 μg L^−1): 0.04 (±0.002) ng mL^−1
In vitro concentration (basal compartment) (DSI gill cell epithelium [7]; nominal water concentration 1.0 μg L^−1): 0.10 (±0.001) ng mL^−1
In vitro concentration (basal compartment) (DSI gill cell epithelium [7]; [13]): 0.72 (±0.02) ng mL^−1
In vitro concentration (basal compartment) (DSI gill cell epithelium [7]; [14]): 7.5 (±0.3) ng mL^−1
In vitro concentration (basal compartment) (DSI gill cell epithelium [7]; [15]): 79.5 (±7.3) ng mL^−1
In vitro concentration (basal compartment) (DSI gill cell epithelium [7]; [16]): 812 (±158) ng mL^−1
In vitro concentration (basal compartment) (DSI gill cell epithelium [7]; nominal water concentration 100,000 μg L^−1): 5545 (±313) ng mL^−1
difference between Papp A:B and Papp B:A (DSI gill cell epithelium [6]; asymmetrical conditions): significantly higher
time-dependent BTA, uptake versus efflux (% of donor concentration) (DSI gill cell epithelium [6]; asymmetrical conditions): taken up across the gill cell surface than effluxed
Papp A→B at 6 h, 1 μg L^−1 [8]: 1.7 ± 0.2 ×10⁻⁶ cm/s
Papp B→A at 6 h, 1 μg L^−1 [8]: 1.1 ± 0.02 ×10⁻⁶ cm/s
Papp B→A at 6 h, 1 μg L^−1 ([8]; pH 7.7): 0.8 ± 0.1 ×10⁻⁶ cm/s
log Kow ([9]; pH 7.4): 1.12 ^*
In vivo plasma concentration ([10]; nominal water concentration 1.0 μg L^−1, pooled plasma sample): 0.94 ^* (n/a) ng mL^−1
In vivo plasma concentration [10, 13]: 3.3 (±0.4) ng mL^−1
In vivo plasma concentration [10, 14]: 16 (±7) ng mL^−1
In vivo plasma concentration [10, 15]: 280 (±116) ng mL^−1
In vivo plasma concentration [10, 16]: 5200 (±1333) ng mL^−1
actual plasma concentrations as share of predicted [10]: 59%
effect of pH increase on Papp (DSI gill cell epithelium [11]): without significant effect
Papp A→B at 6 h, 1 μg L^−1 ([12]; apical freshwater pH 6, asymmetrical, 1 μg L^−1, read-out: Papp A:B (uptake permeability)): 0.4 ± 0.03 ×10⁻⁶ cm/s
Papp B→A at 6 h, 1 μg L^−1 ([12]; apical freshwater pH 6, asymmetrical): 2.8 ± 0.1 ×10⁻⁶ cm/s
Papp B→A at 6 h, 1 μg L^−1 ([12]; apical freshwater pH 8, asymmetrical): 0.8 ± 0.1 ×10⁻⁶ cm/s

facilitated transport as share of the total transport, efflux (DSI gill cell epithelium [1]; CETA, efflux): around 5%
CETA, percentage of initial concentration apical versus basal (DSI gill cell epithelium [1]; symmetrical conditions): no significant differences
difference between Papp A:B and Papp B:A (DSI gill cell epithelium [6]; asymmetrical conditions): no significant differences
time-dependent BTA, uptake versus efflux (% of donor concentration) (DSI gill cell epithelium [6]; symmetrical conditions): greater efflux transport
efflux ratio at 6 h, 1 μg L^−1 [8]: 0.83
Structure (SMILES): CNC(=C[N+](=O)[O-])NCCSCc1ccc(CN(C)C)o1 [Ranitidine, ranitidine]
pKa [3]: 8.08
time-dependent BTA, uptake versus efflux (% of donor concentration) (DSI gill cell epithelium [6]; asymmetrical conditions): taken up across the gill cell surface than effluxed

CETA, percentage of initial concentration apical versus basal (DSI gill cell epithelium [1]; asymmetrical conditions): no signs of facilitated transport
CETA, percentage of initial concentration apical versus basal (DSI gill cell epithelium [1]; symmetrical conditions): no significant differences
difference between Papp A:B and Papp B:A (DSI gill cell epithelium [6]; asymmetrical conditions): no significant differences
time-dependent BTA, uptake versus efflux (% of donor concentration) (DSI gill cell epithelium [6]; asymmetrical conditions): slightly greater uptake than efflux
efflux ratio at 6 h, 1 μg L^−1 [8]: 1.09
efflux ratio at 6 h, 1 μg L^−1 ([8]; pH 7.7): 1.13
Structure (SMILES): CC(C)(C)NCC(O)c1cc(O)cc(O)c1 (centres unmarked) [Terbutaline, terbutaline]
log Kow ([9]; no pH given): 1.29
